# Assay results taken from patent US20250288573A1 (H. LEE MOFFITT CANCER CENTER AND RESEARCH INSTITUTE, INC., priority 2018, published 2025).
# Read-outs that look alike come from different tables or passages of the source.
# What was measured:
# cereblon (CRBN) = cereblon (CRBN) (Homo sapiens, UniProt Q96SW2); assay: Kd and % inhibition from FI; format: binding; details: for inhibition at 200 µM: read-out: % inhibition @ 200 uM from *FI
# CRBN = biological target: T1, CRBN (Homo sapiens, UniProt Q96SW2); assay: Western blot for expression of CRBN relative to vinculin in human T cells (CRBN degradation); format: cell-based; details: read-out: Relative Density of CRBN (% of DMSO); for remaining activity at 0.01 µM: 24 h
# T1 construct: endogenous in cells; host or cells: primary human T cells / CD8+ T cells from peripheral blood
# T1 sequence (Q96SW2 whole entry): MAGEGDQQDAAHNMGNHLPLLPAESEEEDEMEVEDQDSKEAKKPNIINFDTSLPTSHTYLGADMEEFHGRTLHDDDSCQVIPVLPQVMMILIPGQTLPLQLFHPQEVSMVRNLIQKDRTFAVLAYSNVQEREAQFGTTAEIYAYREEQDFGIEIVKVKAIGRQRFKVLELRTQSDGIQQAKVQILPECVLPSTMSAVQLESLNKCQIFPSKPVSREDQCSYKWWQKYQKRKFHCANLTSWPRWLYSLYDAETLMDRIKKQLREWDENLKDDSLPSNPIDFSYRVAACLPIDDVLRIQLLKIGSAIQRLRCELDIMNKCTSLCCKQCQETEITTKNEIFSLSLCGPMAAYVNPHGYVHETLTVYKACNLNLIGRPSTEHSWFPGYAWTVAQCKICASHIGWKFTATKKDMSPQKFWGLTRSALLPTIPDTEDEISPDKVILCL
# Source text: Bortez=bortezomib; MG132=proteasome inhibitor; MLN4924=NEDD8 inhibitor.
# This assay is a standard Western blot assay for expression of CRBN relative to vinculin.
# […] 0.1 percent DMSO was used as a vehicle control.
# [1] = FI, read-out: Kd (FI) (converted)
# [2] = cell does not state FI or ITC, read-out: Kd (A) FI/ITC
# Chain of cereblon (CRBN) (Q96SW2 whole entry, species assumed): as the sequence (Q96SW2 whole entry) above
inhibition at 200 µM (cereblon (CRBN)),remaining activity at 10 µM (CRBN; 10uM),"remaining activity at 0.01 µM (CRBN; 10nM, human T cells, 24 hours)",% inhibition @ 200 uM from *FI (cereblon (CRBN)),Kd (cereblon (CRBN); [1]),Kd (A) FI/ITC (cereblon (CRBN); cell does not state FI or ITC),Kd (cereblon (CRBN); [2]),SMILES,remaining activity at 0.01 µM (CRBN),remaining activity at 10 µM (CRBN)
47.9 ± 11%,19.8%,114%,,,,,"O=C1CCC(N2C(=O)c3cccc(NC(=O)CCCC(=O)Nc4cccc5c4C(=O)N(C4CCC(=O)NC4=O)C5=O)c3C2=O)C(=O)N1 (centres unmarked) [EC1-117, N^1,N^5-bis(2-(2,6-Dioxopiperidin-3-yl)-1,3-dioxoisoindolin-4-yl)glutaramide]",,
18 ± 20%,4.91%,30.5%,,,,,"O=C1CCC(N2C(=O)c3cccc(NC(=O)CCCCCC(=O)Nc4cccc5c4C(=O)N(C4CCC(=O)NC4=O)C5=O)c3C2=O)C(=O)N1 (centres unmarked) [EC1-119, N^1,N^7-bis(2-(2,6-Dioxopiperidin-3-yl)-1,3-dioxoisoindolin-4-yl)heptanediamide]",,
23.2 ± 20%,16.8%,95.3%,,,,,"O=C1CCC(N2C(=O)c3cccc(NC(=O)CCCCC(=O)Nc4cccc5c4C(=O)N(C4CCC(=O)NC4=O)C5=O)c3C2=O)C(=O)N1 (centres unmarked) [EC1-120, N^1,N^6-bis(2-(2,6-Dioxopiperidin-3-yl)-1,3-dioxoisoindolin-4-yl)adipamide]",,
,33%,33.4%,n.b.,,,,"O=C1CCC(N2C(=O)c3cccc(NC(=O)CCCCCCCCC(=O)Nc4cccc5c4C(=O)N(C4CCC(=O)NC4=O)C5=O)c3C2=O)C(=O)N1 (centres unmarked) [EC1-132, N^1,N^10-bis(2-(2,6-Dioxopiperidin-3-yl)-1,3-dioxoisoindolin-4-yl)decanediamide]",,
71.6 ± 2%,7.19%,91.2%,,22.1 ± 1.47 µM,,,"O=C1CCC(N2Cc3c(NC(=O)CCCCCC(=O)Nc4cccc5c4CN(C4CCC(=O)NC4=O)C5=O)cccc3C2=O)C(=O)N1 (centres unmarked) [EC1-141, N^1,N^7-Bis(2-(2,6-dioxopiperidin-3-yl)-1-oxoisoindolin-4-yl)heptanediamide]",,
83.6 ± 4%,2.97%,73.8%,,23.6 ± 2.55 µM,,,"O=C1CCC(N2Cc3c(NC(=O)CCCC(=O)Nc4cccc5c4CN(C4CCC(=O)NC4=O)C5=O)cccc3C2=O)C(=O)N1 (centres unmarked) [EC1-148, N^1,N^5-Bis(2-(2,6-dioxopiperidin-3-yl)-1-oxoisoindolin-4-yl)glutaramide]",,
87.3 ± 2%,1.74%,76.3%,,22.8 ± 0.55 µM,,,"O=C1CCC(N2Cc3c(NC(=O)CCCCC(=O)Nc4cccc5c4CN(C4CCC(=O)NC4=O)C5=O)cccc3C2=O)C(=O)N1 (centres unmarked) [EC1-149, N^1,N^6-Bis(2-(2,6-dioxopiperidin-3-yl)-1-oxoisoindolin-4-yl)adipamide]",,
57.2 ± 10%,6.33%,99.3%,,18.3 ± 1.54 µM,,,"O=C1CCC(N2Cc3c(NC(=O)CCCCCCC(=O)Nc4cccc5c4CN(C4CCC(=O)NC4=O)C5=O)cccc3C2=O)C(=O)N1 (centres unmarked) [EC1-150, N^1,N^8-Bis(2-(2,6-dioxopiperidin-3-yl)-1-oxoisoindolin-4-yl)octanediamide]",,
46.7 ± 9%,32%,137%,,14.2 ± 3.16 µM,,,"O=C1CCC(N2Cc3c(NC(=O)CCCCCCCC(=O)Nc4cccc5c4CN(C4CCC(=O)NC4=O)C5=O)cccc3C2=O)C(=O)N1 (centres unmarked) [EC1-151, N^1,N^9-Bis(2-(2,6-dioxopiperidin-3-yl)-1-oxoisoindolin-4-yl)nonanediamide]",,
47.9 ± 2%,28.2%,133%,,15.5 ± 2.26 µM,,,"O=C1CCC(N2Cc3c(NC(=O)CCCCCCCCC(=O)Nc4cccc5c4CN(C4CCC(=O)NC4=O)C5=O)cccc3C2=O)C(=O)N1 (centres unmarked) [EC1-152, N^1,N^10-Bis(2-(2,6-dioxopiperidin-3-yl)-1-oxoisoindolin-4-yl)decanediamide]",,
,10.3%,,,,,86.5 ± 25.3 µM,"O=C1CCC(N2Cc3c(C#CCCCCCCC#Cc4cccc5c4CN(C4CCC(=O)NC4=O)C5=O)cccc3C2=O)C(=O)N1 (centres unmarked) [EC2-086, 3,3′-(Deca-1,9-diyne-1,10-diylbis(1-oxoisoindoline-4,2-diyl))bis(piperidine-2,6-dione)]",,
,13.3%,,,,,35.5 ± 47.9 µM,"O=C1CCC(N2Cc3c(CCCCCCCCCCc4cccc5c4CN(C4CCC(=O)NC4=O)C5=O)cccc3C2=O)C(=O)N1 (centres unmarked) [EC2-093, 3,3′-(Decane-1,10-diylbis(1-oxoisoindoline-4,2-diyl))bis(piperidine-2,6-dione)]",,
72.8 ± 1.38%,91.1%,80.6%,,15 ± 0.97 µM,,,"O=C(CCc1cccc2c1CN(C1CCC(=O)NC1=O)C2=O)NCCOCCOCCNC(=O)CCc1cccc2c1CN(C1CCC(=O)NC1=O)C2=O (centres unmarked) [SM3-005, N,N′-((Ethane-1,2-diylbis(oxy))bis(ethane-2,1-diyl))bis(3-(2-(2,6-dioxopiperidin-3-yl)-1-oxoisoindolin-4-yl)propanamide)]",,

# Second part, the compound before the results:
SMILES,inhibition at 200 µM (cereblon (CRBN)),remaining activity at 10 µM (CRBN; 10uM),"remaining activity at 0.01 µM (CRBN; 10nM, human T cells, 24 hours)",% inhibition @ 200 uM from *FI (cereblon (CRBN)),Kd (cereblon (CRBN); [1]),Kd (A) FI/ITC (cereblon (CRBN); cell does not state FI or ITC),Kd (cereblon (CRBN); [2]),remaining activity at 0.01 µM (CRBN),remaining activity at 10 µM (CRBN)
"O=C1CCC(N2C(=O)c3cccc(NC(=O)[C@H]4CC[C@@H](C(=O)Nc5cccc6c5C(=O)N(C5CCC(=O)NC5=O)C6=O)CC4)c3C2=O)C(=O)N1 (stereo partly drawn) [EC1-133, (cis)-N^1,N^4-bis(2-(2,6-Dioxopiperidin-3-yl)-1,3-dioxoisoindolin-4-yl)cyclohexane-1,4-dicarboxamide]",,10.3%,119%,n.b.,,,,,
"O=C1CCC(N2C(=O)c3cccc(NC(=O)[C@H]4CC[C@H](C(=O)Nc5cccc6c5C(=O)N(C5CCC(=O)NC5=O)C6=O)CC4)c3C2=O)C(=O)N1 (stereo partly drawn) [EC1-135, (trans)-N^1,N^4-bis(2-(2,6-Dioxopiperidin-3-yl)-1,3-dioxoisoindolin-4-yl)cyclohexane-1,4-dicarboxamide]",,36.5%,134%,n.b.,,,,,
"O=C1CCC(N2Cc3c(NC(=O)[C@H]4CC[C@H](C(=O)Nc5cccc6c5CN(C5CCC(=O)NC5=O)C6=O)CC4)cccc3C2=O)C(=O)N1 (stereo partly drawn) [EC1-154, (Trans)-N^1,N^4-Bis(2-(2,6-dioxopiperidin-3-yl)-1-oxoisoindolin-4-yl)cyclohexane-1,4-dicarboxamide]",18.4 ± 77%,,,,,,,103%,44.2%
O=C1CCC(N2Cc3c(OCc4ccc(CN5CCN(Cc6ccc(COc7cccc8c7CN(C7CCC(=O)NC7=O)C8=O)cc6)CC5)cc4)cccc3C2=O)C(=O)N1 (centres unmarked) [EC1-168.MS],,107%,,,,insoluble,,,
O=C(COc1cccc2c1C(=O)N(C1CCC(=O)NC1=O)C2=O)NCCCOCCCNC(=O)COc1cccc2c1C(=O)N(C1CCC(=O)NC1=O)C2=O (centres unmarked) [SM2-126],88.9 ± 1.54%,13.2%,136%,,13.7 ± 0.7 µM,,,,
"O=C1CCC(N2Cc3c(CCCOCCOCCOCCCc4cccc5c4CN(C4CCC(=O)NC4=O)C5=O)cccc3C2=O)C(=O)N1 (centres unmarked) [SM2-129, 3,3′-((((Oxybis(ethane-2,1-diyl))bis(oxy))bis(propane-3,1-diyl))bis(1-oxoisoindoline-4,2-diyl))bis(piperidine-2,6-dione)]",76.2 ± 1.54%,12.4%,53.6%,,11.1 ± 0.58 µM,,,,
"O=C1CCC(N2Cc3c(CCCOCCOCCOCCOCCCc4cccc5c4CN(C4CCC(=O)NC4=O)C5=O)cccc3C2=O)C(=O)N1 (centres unmarked) [SM2-139, 3,3′-((4,7,10,13-Tetraoxahexadecane-1,16-diyl)bis(1-oxoisoindoline-4,2-diyl))bis(piperidine-2,6-dione)]",79.6 ± 3.13%,19.4%,44.3%,,9.38 ± 0.59 µM,,,,
"O=C1CCC(N2Cc3c(CCCOCCOCCOCCOCCOCCCc4cccc5c4CN(C4CCC(=O)NC4=O)C5=O)cccc3C2=O)C(=O)N1 (centres unmarked) [SM2-156, 3,3′-((4,7,10,13,16-Pentaoxanonadecane-1,19-diyl)bis(1-oxoisoindoline-4,2-diyl))bis(piperidine-2,6-dione)]",79.5 ± 2.29%,33.4%,56.8%,,11.2 ± 0.53 µM,,,,
"O=C(/C=C/c1cccc2c1CN(C1CCC(=O)NC1=O)C2=O)NCCOCCOCCNC(=O)/C=C/c1cccc2c1CN(C1CCC(=O)NC1=O)C2=O (centres unmarked) [SM3-003, (2E,2′E)-N,N′-((ethane-1,2-diylbis(oxy))bis(ethane-2,1-diyl))bis(3-(2-(2,6-dioxopiperidin-3-yl)-1-oxoisoindolin-4-yl)acrylamide)]",72 ± 0.8%,102%,125%,,14.3 ± 0.05 µM,,,,
"O=C(/C=C/c1cccc2c1CN(C1CCC(=O)NC1=O)C2=O)NCCOCCNC(=O)/C=C/c1cccc2c1CN(C1CCC(=O)NC1=O)C2=O (centres unmarked) [SM3-006, (2E,2′E)-N,N′-(Oxybis(ethane-2,1-diyl))bis(3-(2-(2,6-dioxopiperidin-3-yl)-1-oxoisoindolin-4-yl)acrylamide)]",72.9 ± 1.19%,85.3%,110%,,15.2 ± 1.52 µM,,,,
"O=C(/C=C/c1cccc2c1CN(C1CCC(=O)NC1=O)C2=O)NCCOCCOCCOCCNC(=O)/C=C/c1cccc2c1CN(C1CCC(=O)NC1=O)C2=O (centres unmarked) [SM3-009, (2E,2′E)-N,N′-(((Oxybis(ethane-2,1-diyl))bis(oxy))bis(ethane-2,1-diyl))bis(3-(2-(2,6-dioxopiperidin-3-yl)-1-oxoisoindolin-4-yl)acrylamide)]",83.88 ± 0.28%,59.1%,108%,,8.21 ± 1.22 µM,,,,
